How the values were obtained:
human Edg-1(S1P1) [1] = target: T1, human Edg-1(S1P1) (Homo sapiens, UniProt P21453); experiment: Membrane system binding test: inhibition of [33P]-S1P binding to the membrane fraction of Edg-1(S1P1) gene transferred HEK-293 cells; conditions: 10 μM compound; [33P]-S1P 0.1 nM; membrane fraction of Edg-1(S1P1) gene transferred HEK-293 cells; read-out: Membrane system binding test % inhibition (10 μM)
T1 construct: expressed in transfected cells; host or cells: HEK-293
T1 sequence (P21453 whole entry): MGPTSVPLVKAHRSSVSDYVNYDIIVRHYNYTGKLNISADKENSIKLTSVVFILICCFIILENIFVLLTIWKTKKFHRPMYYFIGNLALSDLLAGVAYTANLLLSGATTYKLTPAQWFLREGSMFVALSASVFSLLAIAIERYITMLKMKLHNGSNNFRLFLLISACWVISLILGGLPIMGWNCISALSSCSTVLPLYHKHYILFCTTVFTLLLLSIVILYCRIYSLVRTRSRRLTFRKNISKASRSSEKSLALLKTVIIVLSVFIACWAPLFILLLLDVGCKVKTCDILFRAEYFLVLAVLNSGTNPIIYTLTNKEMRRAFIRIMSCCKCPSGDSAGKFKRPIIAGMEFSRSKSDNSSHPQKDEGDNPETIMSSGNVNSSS
Method in brief: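 Compound tested at 10^−5 M final (0.1% DMSO) for blocking 0.1 nM [^33P]-S1P binding to S1P1-expressing HEK-293 membranes, 30 °C, 1 h. Radioactivity retained on filters was counted, and percent inhibition derived relative to vehicle binding, correcting for the background of non-transfected HEK-293 membranes.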

human Edg-1(S1P1) [2] = target: T1, human Edg-1(S1P1); experiment: Cell system binding test: inhibition of [3H]-S1P binding to Edg-1(S1P1) gene transferred HEK-293 cells; conditions: 10 μM compound, [3H]-S1P 10 nM, read-out: Cell system binding test % inhibition (10 μM)

Row | Compound | inhibition at 10 µM (human Edg-1(S1P1) [1]) | inhibition at 10 µM (human Edg-1(S1P1) [2]) | melting point
1 | CCn1c(SC)nnc1[C@@H](C)NS(=O)(=O)c1ccc(Cl)cc1 [Compound 1, 4-chloro-N-{(1R)-1-[4-ethyl-5-(methylthio)-4H-1,2,4-triazol-3-yl]ethyl}benzenesulfonamide] | 72.3% | 89.8% | 176 to 177 °C
2 | CCn1c(S)nnc1[C@@H](C)NS(=O)(=O)c1ccc(Cl)cc1 [Compound 90, 4-chloro-N-[(1R)-1-(4-ethyl-5-mercapto-4H-1,2,4-triazol-3-yl)ethyl]benzenesulfonamide] | 48.8% | 60.6% | 169.5 to 172.5 °C
3 | C=CCSc1nnc([C@@H](C)N(C)S(=O)(=O)c2ccc(Cl)cc2)n1CC [Compound 99, N-{(1R)-1-[5-(allylthio)-4-ethyl-4H-1,2,4-triazol-3-yl]ethyl}-4-chloro-N-methylbenzenesulfonamide] | 57.4% | 75.8% | 142 to 143 °C

Results, then the compound that gave them:

Row | inhibition at 10 µM (human Edg-1(S1P1) [1]) | inhibition at 10 µM (human Edg-1(S1P1) [2]) | melting point | Compound
4 | 52.4% | 69% | 161.5 to 162 °C | C=CCSc1nnc(C(CCC)NS(=O)(=O)c2ccc(Cl)cc2)n1C (stereo not drawn) [Compound 125, N-{1-[(5-allylthio)-4-methyl-4H-1,2,4-triazol-3-yl]butyl}-4-chlorobenzenesulfonamide]
5 | 97.7% | 89.2% | 150.5 to 151.5 °C | CCCOc1nnc([C@@H](C)NS(=O)(=O)c2ccc(Cl)cc2)n1CC [Compound 183, 4-Chloro-N-[(1R)-1-(4-ethyl-5-propoxy-4H-1,2,4-triazol-3-yl)ethyl]benzenesulfonamide]
6 | 57.3% | 90.7% | 161 to 162 °C | CCn1c(OC)nnc1[C@@H](C)NS(=O)(=O)c1ccccc1 [Compound 376, [(1R)-1-(4-Ethyl-5-methoxy-4H-[1,2,4]triazol-3-yl)ethyl]benzenesulfonamide]
